Literature values in patent publication US5595896A, “Expression of heterologous genes in transgenic plants and plant cells using plant asparagine synthetase promoters” (New York University, priority 1993, dated 1997).
Numbered stars: 1 amine (or outer) side, 2 acyl side, 3 side chain; on linkers, the order of the positions; unused ones are H or OH. Bridge positions count the residues as written; N and C are the ends. Square brackets hold non-standard residues; d marks the D form. Peptide text beside a SMILES is read from it. I, II: the chains in the order shown. Actinocin(9to1) = Cc1c2oc3c(C)ccc(C(=O)[*:1])c3nc-2c(C(=O)[*:2])c(N)c1=O; NMeV = CN[CH](C(=O)O)C(C)C; Sar = CNCC(=O)O

System: GS
Conditions: toxin produced by P. syringae, coinfected alfalfa plants

| Molecule | GS activity inhibited by toxin |
| --- | --- |
| N[C@@H](CCC1(O)CNC1=O)C(=O)O (stereo partly drawn) [Tabtoxinine β-lactam] | severely inhibited |

System: PLANT AS
Conditions: not given

| Molecule | Inhibition (%) |
| --- | --- |
| CS(=N)(=O)CC[C@H](N)C(=O)O (stereo partly drawn) [L-methionine-S-sulphoximine] | 8.6 |

Same assay, conditions: Asparagine analogues, 2 mM

| Molecule | Inhibition (%) |
| --- | --- |
| CC(C(N)=O)C(N)C(=O)O (racemic) [β-methyl-DL-asparagine] | 55.1 |
| N[C@@H](CS(N)(=O)=O)C(=O)O [2-amino-2-carboxy-L-ethanesulphonamide] | 42.5 |
| [N-]=[N+]=CC(=O)C[C@H](N)C(=O)O [5-diazo-4-oxo-L-norvaline] | 40.3 |
| CN[C@@H](CC(N)=O)C(=O)O [N-α-methyl-L-asparagine] | 38.8 |
| NC(=O)[C@H](O)[C@H](N)C(=O)O [erythro-β-hydroxy-L-asparagine] | 59.5 |
| NC(=O)[C@@H](O)[C@H](N)C(=O)O [threo β-hydroxy-L-asparagine] | 45.2 |
| N-ethyl-L-asparagine | 47.2 |
| N-methyl-L-asparagine | 57.6 |

Same assay, conditions: Aspartate analogues, 2 mM

| Molecule | Inhibition (%) |
| --- | --- |
| NC(=O)[C@H](N)[C@H](N)C(=O)O (relative stereo) [meso-diaminosuccinamate] | 50.6 |
| N[C@@H](CC(=O)CBr)C(=O)O [5-bromo-4-oxo-L-norvaline] | 49.5 |
| N[C@@H](CC(=O)CCl)C(=O)O [5-chloro-4-oxo-L-norvaline] | 42.1 |
| N[C@H](C(=O)O)[C@@H](O)C(=O)O [erythro β-hydroxy-L-aspartate] | 65.4 |
| C[C@@H](C(=O)O)[C@H](N)C(=O)O [erythro β-methyl-L-aspartate] | 51.4 |
| C[C@H](C(=O)O)[C@H](N)C(=O)O [threo β-methyl-L-aspartate] | 58.4 |

Same assay, conditions: Glutamine analogues, 5 mM

| Molecule | Inhibition (%) |
| --- | --- |
| 2-hydroxyethyl-L-glutamine | 31.1 |
| NC(=O)CCCC(N)C(=O)O (racemic) [DL-homoglutamine] | 42.4 |
| NC(=O)CCC(NC(=O)OCc1ccccc1)C(=O)O (racemic) [N-CBZ-DL-glutamine] | 30.5 |
| NC(=O)CC[C@@H](N)C(=O)O [D-glutamine] | 14.8 |
| NC(=O)NC[C@H](N)C(=O)O [L-albizziine] | 85.2 |
| [N-]=[N+]=CC(=O)OC[C@H](N)C(=O)O [L-azaserine] | 97.5 |
| NC(=O)CC[C@H](N)C(N)=O [L-glutamate diamide] | 9.1 |
| CCOC(=O)CC[C@H](N)C(=O)O [L-glutamate-γ-ethyl ester] | 23.6 |
| COC(=O)CC[C@H](N)C(=O)O [L-glutamate-γ-methyl ester] | 27.2 |
| CC(=O)N[C@@H](CCC(N)=O)C(=O)O [N-acetyl-L-glutamine] | 10.2 |
| NC(=O)SC[C@H](N)C(=O)O [S-carbamoyl-L-cysteine] | 35.6 |
| C=C(C[C@H](N)C(=O)O)C(N)=O [γ-methylene-L-glutamine] | 20.4 |

System: AS
Conditions: actinomycin D treatment, cotyledons of germinating cotton seedlings

| Molecule | induction of AS activity |
| --- | --- |
| Cc1c2oc3c(C)ccc(C(=O)NC4C(=O)NC(C(C)C)C(=O)N5CCCC5C(=O)N(C)CC(=O)N(C)C(C(C)C)C(=O)OC4C)c3nc-2c(C(=O)NC2C(=O)NC(C(C)C)C(=O)N3CCCC3C(=O)N(C)CC(=O)N(C)C(C(C)C)C(=O)OC2C)c(N)c1=O (centres unmarked) [actinomycin D] (I: TVP[Sar][NMeV] / II: TVP[Sar][NMeV]; ester I:1-I:C, II:1-II:C; linker I:N-II:N via Actinocin(9to1); configuration not given here) | abolished |
